Test results as given in patent US12383545B1, “Treatment of migraine” (priority 2018, dated 2025).

Test system: ALT or AST
Experiment: Example 5: postbaseline hepatic laboratory parameter values of clinical interest
Assay type: in vivo, human
Details: safety population; for Participants with Potential Hy's Law ALT or AST >=3 * ULN AND Bilirubin Total >=2 * ULN AND ALP <2 * ULN, n/N1 / Participants with Concurrent Elevations ALT or AST >=3 * ULN AND Bilirubin Total >=1.5 * ULN, n/N1 / Participants with Concurrent Elevations ALT or AST >=3 * ULN AND Bilirubin Total >=2 * ULN, n/N1: same day
Procedure: In a multicenter, randomized, double-blind, placebo-controlled, parallel-group study designed to evaluate the efficacy, safety, and tolerability of multiple doses and doses regimens of atogepant for the prevention of migraine. The patients were randomized (2:1:2:1:2:1) to 1 of 6 treatment groups: placebo, atogepant 10 mg QD, atogepant 30 mg QD, atogepant 30 mg BID, atogepant 60 mg QD, and atogepant 60 mg BID.
A total of 834 patients were randomized to double-blind treatment (ITT population), and 825 patients took at least 1 dose of double-blind IP (safety population). […] The primary efficacy variable was the change from baseline in mean monthly migraine/probable migraine headache days across the 12-week treatment period. The secondary efficacy variables were the change from baseline in mean monthly headache days across the 12-week treatment period, proportion of patients with at least a 50% reduction in mean monthly migraine/probable migraine headache days across the 12-week treatment period, and the change from baseline in mean monthly acute medication use days across the 12-week treatment period.

C[C@@H]1[C@H](c2c(F)ccc(F)c2F)C[C@H](NC(=O)c2cnc3c(c2)C[C@@]2(C3)C(=O)Nc3ncccc32)C(=O)N1CC(F)(F)F [atogepant]
Participants with Potential Hy's Law ALT or AST >=3 * ULN AND Bilirubin Total >=2 * ULN AND ALP <2 * ULN, n/N1 (Atogepant 30 mg BID (N = 86)): 0
Participants with postbaseline ALT or AST (U/L) >=1 * ULN, (%) (Atogepant 30 mg QD (N = 183)): (17.8) %
Participants with postbaseline ALT or AST (U/L) >=1 * ULN, n/N1 (Atogepant 30 mg QD (N = 183)): 32/180
Participants with postbaseline ALT or AST (U/L) >=1.5 * ULN, (%) (Atogepant 30 mg QD (N = 183)): (7.2) %
Participants with postbaseline ALT or AST (U/L) >=1.5 * ULN, n/N1 (Atogepant 30 mg QD (N = 183)): 13/180
Participants with postbaseline ALT or AST (U/L) >=2 * ULN, (%) (Atogepant 30 mg QD (N = 183)): (3.3) %
Participants with postbaseline ALT or AST (U/L) >=2 * ULN, n/N1 (Atogepant 30 mg QD (N = 183)): 6/180
Participants with postbaseline ALT or AST (U/L) >=3 * ULN, (%) (Atogepant 30 mg QD (N = 183)): (0.6) %
Participants with postbaseline ALT or AST (U/L) >=3 * ULN, n/N1 (Atogepant 30 mg QD (N = 183)): 1/180
Participants with postbaseline ALT or AST (U/L) >=5 * ULN, n/N1 (Atogepant 30 mg QD (N = 183)): 0
Participants with postbaseline ALT or AST (U/L) >=10 * ULN, n/N1 (Atogepant 30 mg QD (N = 183)): 0
Participants with postbaseline ALT or AST (U/L) >=20 * ULN, n/N1 (Atogepant 30 mg QD (N = 183)): 0
Participants with Concurrent Elevations ALT or AST >=3 * ULN AND Bilirubin Total >=1.5 * ULN, n/N1 (Atogepant 30 mg QD (N = 183)): 0
Participants with Concurrent Elevations ALT or AST >=3 * ULN AND Bilirubin Total >=2 * ULN, n/N1 (Atogepant 30 mg QD (N = 183)): 0
Participants with Potential Hy's Law ALT or AST >=3 * ULN AND Bilirubin Total >=2 * ULN AND ALP <2 * ULN, n/N1 (Atogepant 30 mg QD (N = 183)): 0
Participants with postbaseline ALT or AST (U/L) >=1 * ULN, (%) (Atogepant 60 mg BID (N = 91)): (10.2) %
Participants with postbaseline ALT or AST (U/L) >=1 * ULN, n/N1 (Atogepant 60 mg BID (N = 91)): 9/88
Participants with postbaseline ALT or AST (U/L) >=1.5 * ULN, (%) (Atogepant 60 mg BID (N = 91)): (1.1) %
Participants with postbaseline ALT or AST (U/L) >=1.5 * ULN, n/N1 (Atogepant 60 mg BID (N = 91)): 1/88
Participants with postbaseline ALT or AST (U/L) >=2 * ULN, (%) (Atogepant 60 mg BID (N = 91)): (1.1) %
Participants with postbaseline ALT or AST (U/L) >=2 * ULN, n/N1 (Atogepant 60 mg BID (N = 91)): 1/88
Participants with postbaseline ALT or AST (U/L) >=3 * ULN, (%) (Atogepant 60 mg BID (N = 91)): (1.1) %
Participants with postbaseline ALT or AST (U/L) >=3 * ULN, n/N1 (Atogepant 60 mg BID (N = 91)): 1/88
Participants with postbaseline ALT or AST (U/L) >=5 * ULN, n/N1 (Atogepant 60 mg BID (N = 91)): 0
Participants with postbaseline ALT or AST (U/L) >=10 * ULN, n/N1 (Atogepant 60 mg BID (N = 91)): 0
Participants with postbaseline ALT or AST (U/L) >=20 * ULN, n/N1 (Atogepant 60 mg BID (N = 91)): 0
Participants with Concurrent Elevations ALT or AST >=3 * ULN AND Bilirubin Total >=1.5 * ULN, n/N1 (Atogepant 60 mg BID (N = 91)): 0
Participants with Concurrent Elevations ALT or AST >=3 * ULN AND Bilirubin Total >=2 * ULN, n/N1 (Atogepant 60 mg BID (N = 91)): 0
Participants with Potential Hy's Law ALT or AST >=3 * ULN AND Bilirubin Total >=2 * ULN AND ALP <2 * ULN, n/N1 (Atogepant 60 mg BID (N = 91)): 0
Participants with postbaseline ALT or AST (U/L) >=1 * ULN, (%) (Atogepant 60 mg QD (N = 186)): (13.8) %
Participants with postbaseline ALT or AST (U/L) >=1 * ULN, n/N1 (Atogepant 60 mg QD (N = 186)): 25/181
Participants with postbaseline ALT or AST (U/L) >=1.5 * ULN, (%) (Atogepant 60 mg QD (N = 186)): (4.4) %
Participants with postbaseline ALT or AST (U/L) >=1.5 * ULN, n/N1 (Atogepant 60 mg QD (N = 186)): 8/181
Participants with postbaseline ALT or AST (U/L) >=2 * ULN, (%) (Atogepant 60 mg QD (N = 186)): (2.8) %
Participants with postbaseline ALT or AST (U/L) >=2 * ULN, n/N1 (Atogepant 60 mg QD (N = 186)): 5/181
Participants with postbaseline ALT or AST (U/L) >=3 * ULN, (%) (Atogepant 60 mg QD (N = 186)): (1.7) %
Participants with postbaseline ALT or AST (U/L) >=3 * ULN, n/N1 (Atogepant 60 mg QD (N = 186)): 3/181
Participants with postbaseline ALT or AST (U/L) >=5 * ULN, (%) (Atogepant 60 mg QD (N = 186)): (0.6) %
Participants with postbaseline ALT or AST (U/L) >=5 * ULN, n/N1 (Atogepant 60 mg QD (N = 186)): 1/181
Participants with postbaseline ALT or AST (U/L) >=10 * ULN, n/N1 (Atogepant 60 mg QD (N = 186)): 0
Participants with postbaseline ALT or AST (U/L) >=20 * ULN, n/N1 (Atogepant 60 mg QD (N = 186)): 0
Participants with Concurrent Elevations ALT or AST >=3 * ULN AND Bilirubin Total >=1.5 * ULN, n/N1 (Atogepant 60 mg QD (N = 186)): 0
Participants with Concurrent Elevations ALT or AST >=3 * ULN AND Bilirubin Total >=2 * ULN, n/N1 (Atogepant 60 mg QD (N = 186)): 0
Participants with Potential Hy's Law ALT or AST >=3 * ULN AND Bilirubin Total >=2 * ULN AND ALP <2 * ULN, n/N1 (Atogepant 60 mg QD (N = 186)): 0
